Measurements from EP0503520A1, “Cyclic ketal derivatives” (GLAXO GROUP LIMITED, priority 1991, dated 1992).

Biological target: T1, squalene synthase (Rattus norvegicus, UniProt Q02769)
T1 construct: incubating rat liver homogenate with various concentrations of the test compound; from tissue; host or cells: rat liver homogenate
T1 sequence (Q02769 1-416): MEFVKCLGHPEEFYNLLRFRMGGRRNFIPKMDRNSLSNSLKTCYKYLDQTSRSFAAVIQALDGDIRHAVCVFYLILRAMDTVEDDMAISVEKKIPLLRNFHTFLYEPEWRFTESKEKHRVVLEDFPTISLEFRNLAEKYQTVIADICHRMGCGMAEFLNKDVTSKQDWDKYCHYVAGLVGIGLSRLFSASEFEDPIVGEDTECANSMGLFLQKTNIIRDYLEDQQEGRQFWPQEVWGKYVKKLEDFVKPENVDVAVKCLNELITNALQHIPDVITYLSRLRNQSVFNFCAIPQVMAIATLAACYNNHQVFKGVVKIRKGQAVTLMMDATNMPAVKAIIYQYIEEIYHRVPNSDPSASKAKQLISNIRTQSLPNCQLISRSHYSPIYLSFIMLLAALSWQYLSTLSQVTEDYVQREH
Assay: Inhibition of squalene synthase in rat liver homogenate with [2-14C]farnesylpyrophosphate as substrate
Format: biochemical
Conditions: 50% inhibition of [14C]squalene production in a 30 minute assay, read-out: IC₅₀
Description: Acta, Volume 877, 50-60 (1986) and modified to include measurement of cholesterol by high performance liquid chromatography (h.p.l.c.).
[¹⁴C] Squalene was separated from unreacted substrate on thin layer chromatography plates and determined by liquid scintillation counting. Inhibition of squalene synthase was quantified by incubating rat liver homogenate with various concentrations of the test compound in the presence of [2-¹⁴C] farnesylpyrophosphate. The concentration of compound giving 50% inhibition of [¹⁴C] squalene production in a 30 minute assay was taken as the IC₅₀ value.

For `C=C(CC[C@]12O[C@H](C(=O)O)[C@@](O)(C(=O)O)[C@](C(=O)O)(O1)[C@H](OC(=O)/C=C/[C@@H](C)C[C@@H](C)CC)[C@H]2O)[C@@H](OC(C)=O)[C@H](C)Cc1ccc(F)cc1` (relative stereo) [Example 1(a), [1S-[1α(4R*,5S*),3α,4β,5α,6α(2E,4R*,6R*),7β]] 1-[4-Acetoxy-6-(4-fluorophenyl)-5-methyl-3-methylenehexyll-4,6,7-trihydroxy-2,8-dioxabicyclo[3.2.1]octane-3,4,5-tricarboxylic acid, 6-(4,6-dimethyl-2-octenoate)], the IC50 was under 100 nM.

`C=C(CC[C@]12O[C@H](C(=O)O)[C@@](O)(C(=O)O)[C@](C(=O)O)(O1)[C@H](OC(=O)/C=C/[C@@H](C)C[C@@H](C)CC)[C@H]2O)[C@@H](OC(C)=O)[C@H](C)Cc1cccc(F)c1` (relative stereo) [Example 1(b), [1S-[1α(4R*,5S*),3α,4β,5α,6α(2E,4R*,6R*),7β]] 1-[4-Acetoxy-6-(3-fluorophenyl)-5-methyl-3-methylenehexyl]-4,6,7-trihydroxy-2,8-dioxabicyclo[3.2.1]octane-3,4,5-tricarboxylic acid, 6-(4,6-dimethyl-2-octenoate)] gave an IC50 of under 100 nM.

`C=C(CC[C@]12O[C@H](C(=O)O)[C@@](O)(C(=O)O)[C@](C(=O)O)(O1)[C@H](OC(=O)/C=C/[C@@H](C)C[C@@H](C)CC)[C@H]2O)[C@@H](OC(C)=O)[C@H](C)Cc1ccccc1F` (relative stereo) [Example 1(c), [1S-[1α(4R*,5S*),3α,4β,5α,6α(2E,4R*,6R*),7β]] 1-[4-Acetoxy-6-(2-fluorophenyl)-5-methyl-3-methylenehexyl]-4,6,7-trihydroxy-2,8-dioxabicyclo[3.2.1]octane-3,4,5-tricarboxylic acid, 6-(4,6-dimethyl-2-octenoate)] showed an IC50 of under 100 nM.
